One series has as its target PRMT1 (Homo sapiens, UniProt Q99873). Nature of the series: radioactive PRMT1 methylation inhibition assay ([3H]-SAM, biotinylated histone H4 peptide). Format: biochemical. As to conditions: for % Inhibition of PRMT1 (at 10 μM) / inhibition at 10 µM: 10 μM compound, initial screening. The method, then:
A series of 1,5-substituded tetrazole derivatives were synthesized to investigate the structure-activity relationship (SAR) of PRMT1 inhibitors (Table 1). […] The chemical modification of these compounds is mainly focused on the substituted benzene ring. The initial screening of these compounds was carried out using the radioactive PRMT1 methylation inhibition assay, which measured the amount of methyl groups that transferred from [^3H]-SAM to a biotinylated histone H4 peptide (ac- […](Biotin)). […] In the second step, the Group II compounds were designed and synthesized by extending the ethylenediamine side chain to propylenediamine.
(§1) The enzyme inhibitory activities were measured by the radioisotope assay in ShangHai Chempartner Co. Ltd. according to the standard protocol. The similar procedure was recently performed in the publication The radioactive methylation assay was performed in 1× assay buffer (modified Tris buffer) system containing enzyme (PRMT1/5), peptide and [^3H]-SAM solution and compounds on the assay plate. […] Afterwards, the reaction was stopped with addition of 5 μL cold SAM solution to per well. Then, 25 μL of volume per well was transferred to Flashplate from assay plate and incubated for 1 h minimum at room temperature. Finally, the Flashplate was washed with dH2O and 0.1% Tween-20 three times and then reading plate in Mi crobeta using program ^3H-Flashplate. The data was analyzed in GraphPad Prism 5 to obtain IC50 values.

A further series deals with PRMT5 (Homo sapiens, UniProt O14744). Nature of the series: radioactive methylation assay, PRMT5 selectivity. Format: biochemical. On the procedure:
as §1

Structures can show the parent of a compound that is named as a salt.

Chain of PRMT5 (O14744 whole entry, species assumed): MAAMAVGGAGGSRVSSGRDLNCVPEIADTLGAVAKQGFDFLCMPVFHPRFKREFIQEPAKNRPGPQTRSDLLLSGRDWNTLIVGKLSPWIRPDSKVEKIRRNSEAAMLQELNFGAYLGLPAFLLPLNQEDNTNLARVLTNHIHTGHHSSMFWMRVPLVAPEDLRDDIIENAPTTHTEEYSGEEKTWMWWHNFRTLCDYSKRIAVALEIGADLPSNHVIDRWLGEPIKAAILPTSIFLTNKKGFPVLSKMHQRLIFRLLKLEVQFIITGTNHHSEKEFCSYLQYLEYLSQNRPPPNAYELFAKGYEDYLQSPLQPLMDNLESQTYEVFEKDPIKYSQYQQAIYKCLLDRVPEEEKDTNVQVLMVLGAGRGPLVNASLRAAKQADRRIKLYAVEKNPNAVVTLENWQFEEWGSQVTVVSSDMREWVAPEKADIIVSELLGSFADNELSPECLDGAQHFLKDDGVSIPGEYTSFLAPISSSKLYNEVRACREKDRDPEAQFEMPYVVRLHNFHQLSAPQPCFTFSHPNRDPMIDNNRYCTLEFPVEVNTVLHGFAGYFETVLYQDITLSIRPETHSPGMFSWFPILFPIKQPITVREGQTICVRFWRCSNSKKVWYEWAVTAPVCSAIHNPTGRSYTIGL
Chain of PRMT5 (Q9BQA1 whole entry partner, species assumed): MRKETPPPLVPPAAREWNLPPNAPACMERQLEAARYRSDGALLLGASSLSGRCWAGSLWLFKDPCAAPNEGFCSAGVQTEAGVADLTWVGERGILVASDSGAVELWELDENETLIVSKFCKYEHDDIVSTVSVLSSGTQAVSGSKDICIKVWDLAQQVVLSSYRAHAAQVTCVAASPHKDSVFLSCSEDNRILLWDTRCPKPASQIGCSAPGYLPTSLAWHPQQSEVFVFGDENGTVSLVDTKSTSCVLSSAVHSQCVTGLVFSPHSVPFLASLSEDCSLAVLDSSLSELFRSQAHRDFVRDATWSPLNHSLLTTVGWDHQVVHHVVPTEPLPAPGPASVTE
Chain of PRMT1 (Q99873 whole entry): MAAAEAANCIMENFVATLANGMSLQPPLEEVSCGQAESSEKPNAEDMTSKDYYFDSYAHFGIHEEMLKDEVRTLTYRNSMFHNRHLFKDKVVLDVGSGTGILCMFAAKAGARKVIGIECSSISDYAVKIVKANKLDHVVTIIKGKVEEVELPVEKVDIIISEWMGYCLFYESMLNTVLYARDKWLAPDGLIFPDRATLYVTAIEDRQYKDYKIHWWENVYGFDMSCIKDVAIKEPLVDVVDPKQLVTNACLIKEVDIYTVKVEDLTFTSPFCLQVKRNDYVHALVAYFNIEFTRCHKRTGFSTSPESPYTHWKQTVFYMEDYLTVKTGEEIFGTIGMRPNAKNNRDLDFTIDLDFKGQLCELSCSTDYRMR

For “N,N’-Dimethyl-N’-(1-(3-methylsulfonylphenyl)-1H-tetrazol-5-yl-methyl)ethylenediamine hydrochloride [16b]”, the “% Inhibition of PRMT1 (at 10 μM)” value at PRMT1 is 13%.
Molecule `CC(C)Oc1ccc(-n2nnnc2CN2CCN(CCN)CC2)cc1` (as salt: hydrochloride) [18e, N-aminoethyl-N’-(1-(4-isopropoxyphenyl)-1H-tetrazol-5-yl-methyl)-piperazinehydrochloride] returned a melting point of 183.2 to 183.9 °C.
Turning to `CC(C)Oc1ccc(-n2nnnc2CN(C)CCN)cc1.Cl` [18a, N-(1-(4-Isopropoxyphenyl)-1H-tetrazol-5-yl-methyl)-N-methyl-ethylenediamine hydrochloride], the melting point was in the range of 186.5 to 187.7 °C. Also, the IC50 on PRMT5 was over 100 µM. In addition, at PRMT1, the IC50 came to 10 µM and the inhibition at 10 µM was found to be 50%.
Take `CNCCN(C)Cc1nnnn1-c1cccc(OCC(F)(F)F)c1` [16d, N,N’-Dimethyl-N’-(1-(3-(2,2,2-trifluoroethoxy)phenyl)-1H-tetrazol-5-ylmethyl)ethylenediamine hydrochloride]: the inhibition at 10 µM at PRMT1 turned out to be 3%.
As for “N-Guanidino-N’-(1-(4-isopropoxyphenyl)-1H-tetrazol-5-yl-methyl)-N’-methyl-ethylenediamine hydrochloride [compound 20]”, the “% Inhibition of PRMT1 (at 10 μM)” value on PRMT1 is −7%.
With `CNCCN(C)Cc1nnnn1-c1cccc(OC(C)C)c1` [9b, N,N’-Dimethyl-N’-(1-(3-isopropoxyphenyl)-1H-tetrazol-5-yl-methyl)ethylenediamine hydrochloride], the inhibition at 10 µM at PRMT1 amounted to 0%.
On the same count and under the same terms, in the case of `CNCCCN(C)Cc1nnnn1-c1cccc(OC(C)C)c1` [10b, N,N’-Dimethyl-N’-(1-(3-isopropoxyphenyl)-1H-tetrazol-5-yl-methyl)-1,3-propylenediamine hydrochloride] it was 0%.
Turning to `CC(C)Oc1ccc(-n2nnnc2CN(C)CCCN)cc1` [18b, N-(1-(4-Isopropoxyphenyl)-1H-tetrazol-5-yl-methyl)-N-methyl-1,3-propylenediamine hydrochloride], the inhibition at 10 µM on PRMT1 was 15%.
`CNCCN(C)Cc1nnnn1-c1ccc(OC)cc1.Cl` [9c, N,N’-Dimethyl-N’-(1-(4-methoxyphenyl)-1H-tetrazol-5-yl-methyl)ethylenediamine hydrochloride]: the melting point is 163.2 to 163.6 °C. Besides, the inhibition at 10 µM on PRMT1 was found to be 3%.
Molecule `CC(C)Oc1ccc(-n2nnnc2CNCCN)cc1` (as salt: hydrochloride) [18d, N-(1-(4-Isopropoxyphenyl)-1H-tetrazol-5-yl-methyl)-ethylenediaminehydrochloride] came in with a melting point of 183.1 to 183.9 °C.
Regarding “N,N’-Dimethyl-N’-(1-(4-methylsulfonylphenyl)-1H-tetrazol-5-yl-methyl)ethylenediamine hydrochloride [16a]”, the “% Inhibition of PRMT1 (at 10 μM)” value at PRMT1 came to 23%.
Take `CNCCCN(C)Cc1nnnn1-c1ccc(OC)cc1.Cl` [10c, N,N’-Dimethyl-N’-(1-(4-methoxyphenyl)-1H-tetrazol-5-yl-methyl)-1,3-propylenediamine hydrochloride]: the melting point fell in the range of 188.2 to 190.1 °C. Moreover, the inhibition at 10 µM on PRMT1 was -6%.
Regarding `CNCCCN(C)Cc1nnnn1-c1ccc(OC(C)C)cc1` [10a, N,N’-Dimethyl-N’-(1-(4-isopropoxyphenyl)-1H-tetrazol-5-yl-methyl)-1,3-propylenediamine hydrochloride], the inhibition at 10 µM on PRMT1 came out at 23%.
Take `CNCCN(C)Cc1nnnn1-c1ccc(OCC(F)(F)F)cc1.Cl` [16c, N,N’-Dimethyl-N’-(1-(4-(2,2,2-trifluoroethoxy)phenyl)-1H-tetrazol-5-yl-methyl)ethylenediamine hydrochloride]: the melting point was 188.7 to 190 °C. The IC50 at PRMT5 was over 100 µM.
Regarding `CNCCN(C)Cc1nnnn1-c1cccc(OC(F)(F)F)c1.Cl` [9e, N,N’-Dimethyl-N’-(1-(3-trifluoromethoxyphenyl)-1H-tetrazol-5-yl-methyl)ethylenediamine hydrochloride], the melting point is 185.6 to 186.4 °C. The inhibition at 10 µM at PRMT1 was -17%.
`CNCCN(C)Cc1nnnn1-c1ccc(OC(F)(F)F)cc1.Cl` [9f, N,N’-Dimethyl-N’-(1-(4-trifluoromethoxyphenyl)-1H-tetrazol-5-yl-methyl)ethylenediamine hydrochloride] displayed a melting point of 194.3 to 195.2 °C. Besides, at PRMT5, the IC50 was over 100 µM.
Turning to `CC(C)Oc1ccc(-n2nnnc2CNCCN)cc1` [18d, N-(1-(4-Isopropoxyphenyl)-1H-tetrazol-5-yl-methyl)-ethylenediaminehydrochloride], the inhibition at 10 µM at PRMT1 is 18%.
Consider `CC(C)Oc1ccc(-n2nnnc2CN2CCN(CCN)CC2)cc1` [18e, N-aminoethyl-N’-(1-(4-isopropoxyphenyl)-1H-tetrazol-5-yl-methyl)-piperazinehydrochloride], for which the half-inhibitory concentration (IC50) at PRMT5 was over 100 µM.
In the case of `CNCCCN(C)Cc1nnnn1-c1cccc(OC)c1` [10d, N,N’-Dimethyl-N’-(1-(3-methoxyphenyl)-1H-tetrazol-5-yl-methyl)-1,3-propylenediamine hydrochloride], the inhibition at 10 µM at PRMT1 was -14%.
Regarding “N,N’-Dimethyl-N’-(1-(3-methylsulfonylphenyl)-1H-tetrazol-5-yl-methyl)-1,3-propylenediamine hydrochloride [16e]”, the “% Inhibition of PRMT1 (at 10 μM)” value at PRMT1 is −4%.
In the case of `CNCCCN(C)Cc1nnnn1-c1cccc(OC(F)(F)F)c1` [10e, N,N’-Dimethyl-N’-(1-(3-trifluoromethoxyphenyl)-1H-tetrazol-5-yl-methyl)-1,3-propylenediamine hydrochloride], the inhibition at 10 µM at PRMT1 is -12%.
`CNCCN(C)Cc1nnnn1-c1cccc(OC)c1.Cl` [9d, N,N’-Dimethyl-N’-(1-(3-methoxyphenyl)-1H-tetrazol-5-yl-methyl)ethylenediamine hydrochloride] had a melting point of 185.6 to 186.4 °C. Further, the inhibition at 10 µM at PRMT1 turned out to be 7%.
On the same counts, the results for `CNCCNCc1nnnn1-c1ccc(OC(C)C)cc1.Cl` [18c, N-Methyl-N’-(1-(4-isopropoxyphenyl)-1H-tetrazol-5-yl-methyl)-ethylenediamine hydrochloride] are 179.7 to 180.7 °C and 10%.

The values are drawn from PMC6695598, “The Development of Tetrazole Derivatives as Protein Arginine Methyltransferase I (PRMT I) Inhibitors” (International Journal of Molecular Sciences, 2019).
